Patent US4551532A, “Ethylene glycol derivatives having anti-protozoan, anti-fungal and anti-tumor activity” (priority 1980, dated 1985)

What was measured:
[1] = system: Tetrahymena pyriformis W strain; experiment: antiprotozoal activity, broth dilution method; assay type: cell-based; settings: 28° C., 44-48 hours, pH 7.0, read-out: Growth inhibition MIC Tetrahymena
Cryptococcus neoformans = experiment: antimycotic activity, paper disk inhibition circle; assay type: cell-based; settings: 48 h, 8 mm paper disk, 3 mg/ml, 37° C., 2 days, read-out: Growth inhibition Cryptococcus
Protocol: (§1) Referring to the antimycotic activity presented in Table 2, Cryptoccoccus neoformans and others were used as the test microbes, a paper disk (8 mm in diameter) was immersed in an aqueous solution of each test compound having a concentration of 3 mg/ml, air dried and placed on an agar medium, then incubation was conducted at 37° C. for 2 days, and the inhibition circle was measured. When the diameter of the inhibition circle was not larger than 8 mm, 8-10 mm, 10-20 mm, or larger than 20 mm, the activity was judged as -, ±, + or ++, respectively.

Hamigera = experiment: antimycotic activity, paper disk inhibition circle; assay type: cell-based; settings: 48 h; 8 mm paper disk, 3 mg/ml, 37° C., 2 days; read-out: Growth inhibition Hamigera
Protocol: as §1

Rhodotorula = experiment: antimycotic activity, paper disk inhibition circle; assay type: cell-based; settings: 48 h, 8 mm paper disk, 3 mg/ml, 37° C., 2 days, read-out: Growth inhibition Rhodotorula
Protocol: as §1

Pyricularia oryzae = experiment: microbe, parasite or virus in culture; assay type: cell-based
Cochliobolus miyabeanus = experiment: antifungal activity, serial dilution method; assay type: cell-based; settings: Bipolaris oryzae
Botrytis cinerea = experiment: antifungal activity, serial dilution method; assay type: cell-based; settings: Botrytis cinerea (gray mold); 1% glucose-bouillon agar
Leptosphaeria salvinii = experiment: antifungal activity, serial dilution method; assay type: cell-based; settings: Nakataea oryzae; Leptosphaeria salvinii (rice stem rot); 1% glucose-bouillon agar; read-out: MIC
Sclerotinia sclerotiorum = experiment: antifungal activity, serial dilution method; assay type: cell-based; settings: Sclerotinia sclerotiorum (kidney bean stem rot); 1% glucose-bouillon agar
[2] = system: Colletotrichum lagenarium; experiment: antifungal activity, serial dilution method; assay type: cell-based; settings: Colletotrichum orbiculare; Colletotrichum lagenarium (cucumber anthracnose); 1% glucose-bouillon agar; read-out: MIC
Aspergillus niger = experiment: antifungal activity, serial dilution method; assay type: cell-based; settings: Aspergillus niger (black mold); 1% glucose-bouillon agar; read-out: MIC
Penicillium = experiment: antifungal activity, serial dilution method; assay type: cell-based, Penicillium niger; settings: Penicillium niger (blue mold); 1% glucose-bouillon agar; read-out: MIC
Saccharomyces cerevisiae = experiment: antifungal activity, serial dilution method; assay type: cell-based; settings: Saccharomyces cerevisiae (brewer's yeast); 1% glucose-bouillon agar; read-out: MIC
[3] = hemolysis test by the method of Gottfried et al.; assay type: cell-based, human; settings: human, erythrocytes
Protocol: (§2) The compounds of this invention are of relatively low toxicity. For example, the compound of Example 7 causes no deaths in CDF1 mice even at an intraperitoneal dose of 100 mg/kg (observation period: one week). The hemolytic activity of these compounds is also low in general. For example, in a hemolysis test (with human erythrocytes) by the method of Gottfried et al. [J. Lipid Research, 4, 57 (1963)], the 50% hemolytic concentration of the compound of Example 15 was about 10 μg/ml.

human erythrocytes = experiment: hemolysis test by the method of Gottfried et al.; assay type: cell-based; settings: 5% human albumin, relative to without albumin
Protocol: as §2

CCCCCCCCCCCCOCCOCCOP(=O)([O-])OCC[n+]1ccccc1 [Example 15, 2-[2-Dodecyloxy)ethoxy]ethyl 2-pyridinioethyl phosphate]
MIC [1]: > 4 µg/mL | zone of inhibition at 3000 µg/mL (Cryptococcus neoformans): > 20 mm | zone of inhibition at 3000 µg/mL (Hamigera): 10 to 20 mm | zone of inhibition at 3000 µg/mL (Rhodotorula): 10 to 20 mm | MIC (Pyricularia oryzae): 25 µg/mL | MIC (Cochliobolus miyabeanus): 25 µg/mL | MIC (Botrytis cinerea): 12.5 µg/mL | MIC (Leptosphaeria salvinii): 25 µg/mL | MIC (Sclerotinia sclerotiorum): 25 µg/mL | MIC [2]: 12.5 µg/mL | MIC (Aspergillus niger): 25 µg/mL | MIC (Penicillium): 12.5 µg/mL | MIC (Saccharomyces cerevisiae): 50 µg/mL | HC50 [3]: ~10 µg/mL | 50% hemolytic concentration in the presence of human albumin (human erythrocytes): several times as high
